Reference: patent publication US20200278355A1, “CONJUGATED PROTEINS AND USES THEREOF” (THE SCRIPPS RESEARCH INSTITUTE, priority 2017, published 2020)
Values belong to the molecule of their own block, whether it stands above or below them.

Legend:
[1] = test system: cysteine reactivity in H2122 and H1975 cells; test: isoTOP-ABPP of cysteine reactivity changes after staurosporine or AZD9291 treatment; type: cell-based, human; settings: staurosporine 1 μM, 4 h (H2122, H1975); AZD9291 1 μM, 24 h (H1975)
Experimental: For analysis of cysteines that change following induction of apoptosis, H2122 and H1975 cells were treated with DMSO or staurosporine (1 μM, 4 h) in full RPMI. H1975 cells were treated with DMSO or AZD9291 (1 μM, 24 h) in full RPMI. Cells were lysed as described above. […] Samples were conjugated by copper-catalyzed azide-alkyne cycloaddition (CuAAC) to isotopically labeled, TEV-cleavable tags (TEV-tags). Heavy CuAAC reaction mixtures was added to the DMSO-treated or shGFP control samples and light CuAAC reaction mixture was added to compound-treated or shNRF2 samples. The CuAAC reaction mixture consisted of TEV tags (light or heavy, 10 μL of 5 mM stocks in DMSO, final concentration=100 μM), 1 mM tris(2-carboxyethyl)phosphine hydrochloride (TCEP; fresh 50× stock in water, final concentration=1 mM), ligand (17× stock in DMSO:t-butanol 1:4, final concentration=100 μM) and 1 mM CuSO4 (50× stock in water, final concentration=1 mM). The samples were allowed to react for 1 h at which point the samples were centrifuged (16,000×g, 5 min, 4° C.). The resulting pellets were sonicated in ice-cold methanol (500 μL) and the resuspended light- and heavy-labeled samples were then combined pairwise and centrifuged (16,000×g, 5 min, 4° C.). […] Samples were analyzed using an LTQVelos Orbitrap mass spectrometer (Thermo Scientific) coupled to an Agilent 1200-series quaternary pump. […]

NR0B1-SNW1 interaction = molecular target: T1, NR0B1-SNW1 interaction (Homo sapiens, UniProt P51843); test: In vitro binding assay: NR0B1 in H2122 lysate binding to immobilized FLAG-SNW1
T1 construct: endogenous in cells; host or cells: NR0B1: H2122 cell lysate
T1 sequence (P51843 1-470): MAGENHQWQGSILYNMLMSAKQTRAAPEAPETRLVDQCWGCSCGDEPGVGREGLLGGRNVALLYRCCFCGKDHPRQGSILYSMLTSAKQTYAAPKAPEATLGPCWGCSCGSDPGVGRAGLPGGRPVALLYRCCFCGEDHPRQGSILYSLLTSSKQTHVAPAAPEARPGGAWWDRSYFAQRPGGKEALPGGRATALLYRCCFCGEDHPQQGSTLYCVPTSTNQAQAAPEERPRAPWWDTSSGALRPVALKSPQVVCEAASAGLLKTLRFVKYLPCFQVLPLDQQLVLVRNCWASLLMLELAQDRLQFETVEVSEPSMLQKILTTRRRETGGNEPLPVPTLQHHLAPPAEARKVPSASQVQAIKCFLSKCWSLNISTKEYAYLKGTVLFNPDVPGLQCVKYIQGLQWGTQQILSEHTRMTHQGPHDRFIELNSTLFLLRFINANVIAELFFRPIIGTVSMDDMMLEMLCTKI
Experimental: H2122 clarified cell lysate (100 μL, 1 mg ml^−1) in IP-buffer were incubated with the indicated compounds or vehicle (DMSO) for 3 hours at 4° C. with rotation. Following treatment, 3 volumes of IP-buffer was added along with immobilized FLAG-SNW1 beads (30 μL, 50:50 slurry), which was incubated for an additional hour at 4° C. Beads were washed three times with IP-buffer supplemented with 500 mM NaCl. Immunoprecipitated proteins were resolved by SDS-PAGE and analyzed by immunoblotting. NR0B1 and HA-NR0B1 levels were determined by using the NR0B1 antibody (Cell Signaling). IC50 curves were determined using Prism 6 (Graphpad) software, with maximum and minimum values set at 100% NR0B1 bound 0% NR0B1 bound respectively.
Statistical analysis was preformed using GraphPad Prism version 6 or 7 for Mac, GraphPad Software, La Jolla Calif. USA, or the R statistical programming language. Inhibition curves of the NR0B1-SNW1 interactions by NR0B1-ligand are fit as using log(inhibitor) vs % normalized remaining of NR0B1-SNW1 interaction and data points are plotted as the mean±SD (n=2-5 per group). NR0B1 half-life was calculated from a one-phase exponential decay curve plotted as mean±SD (4-10 per group). Statistical significance was defined as p<0.05 and determined by 2-tailed Student's t-test (FIG. 1I, FIG. 3B), two-way Anova with Bonferroni post-test analysis (FIG. 1J) or correlation analysis using Pearson product-moment correlation coefficient (FIG. 4B, FIG. 10G).
Next, a chemical probe targeting C274 of NR0B1 was developed. Using an in vitro binding assay (FIG. 5B), an ˜80-member library of cysteine-reactive electrophilic compounds was screened at 50 μM for blockade of interactions between endogenous NR0B1 and recombinant FLAG-SNW1 in cell lysates (FIG. 5C). Among the hits (>50% blockade) were a series of N-disubstituted chloroacetamides (CAs), including BPK-26 (FIGS. 5D, 5E), that were selected for further investigation. […] Both BPK-26 and BPK-29 inhibited the NR0B1-SNW1 interaction with IC50 values between 10-20 μM in vitro (FIG. 11C).

NR0B1 = molecular target: T2, NR0B1 (Homo sapiens, UniProt P51843); test: isoTOP-ABPP of compound-treated H460 cells: NR0B1; type: cell-based; settings: NSCLC cells, 40 μM, 3 h
T2 construct: H460 cells or H460 cells expressing luciferase in a 10 cm plate were incubated with indicated compounds; endogenous in cells; host or cells: H460 (NSCLC, KEAP1-mutant)
T2 sequence (P51843 1-470): T1 sequence (P51843 1-470)
Experimental: For analysis of NR0B1 ligands or control compound reactivity, H460 cells or H460 cells expressing luciferase in a 10 cm plate were incubated with indicated compounds in serum/dye-free RPMI for 3 hours at 37° C. Cells were washed once ice-cold PBS and lysed in 1% Triton X-100 dissolved in PBS with protease inhibitors (Sigma) by sonication. Samples were clarified by centrifugation for 10 min at 16,000×g. Lysate was adjusted to 1.5 mg ml^−1 in 500 μL.
Samples were labeled for 1 h at ambient temperature with 100 μM iodoacetamide alkyne (1, IA-alkyne, 5 μL of 10 mM stock in DMSO). Samples were conjugated by copper-catalyzed azide-alkyne cycloaddition (CuAAC) to isotopically labeled, TEV-cleavable tags (TEV-tags). Heavy CuAAC reaction mixtures was added to the DMSO-treated or shGFP control samples and light CuAAC reaction mixture was added to compound-treated or shNRF2 samples. The CuAAC reaction mixture consisted of TEV tags (light or heavy, 10 μL of 5 mM stocks in DMSO, final concentration=100 μM), 1 mM tris(2-carboxyethyl)phosphine hydrochloride (TCEP; fresh 50× stock in water, final concentration=1 mM), ligand (17× stock in DMSO:t-butanol 1:4, final concentration=100 μM) and 1 mM CuSO4 (50× stock in water, final concentration=1 mM). The samples were allowed to react for 1 h at which point the samples were centrifuged (16,000×g, 5 min, 4° C.). The resulting pellets were sonicated in ice-cold methanol (500 μL) and the resuspended light- and heavy-labeled samples were then combined pairwise and centrifuged (16,000×g, 5 min, 4° C.). The pellets were solubilized in PBS containing 1.2% SDS (1 mL) with sonication and heating (5 min, 95° C.) and any insoluble material was removed by an additional centrifugation step at ambient temperature (14,000×g, 1 min).
For each sample, 100 μL of streptavidin-agarose beads slurry (Fisher) was washed in 10 mL PBS and then resuspended in 6 mL PBS (final concentration 0.2% SDS in PBS). The SDS-solubilized proteins were added to the suspension of streptavidin-agarose beads and the bead mixture was rotated for 3 h at ambient temperature. After incubation, the beads were pelleted by centrifugation (1,400×g, 3 min) and were washed (2×10 mL PBS and 2×10 mL water).
The beads were transferred to eppendorftubes with 1 mL PBS, centrifuged (1,400×g, 3 min), and resuspended in PBS containing 6 M urea (500 μL). To this was added 10 mM DTT (25 μL of a 200 mM stock in water) and the beads were incubated at 65° C. for 15 mins. 20 mM iodoacetamide (25 μL of a 400 mM stock in water) was then added and allowed to react at 37° C. for 30 mins with shaking. The bead mixture was diluted with 900 μL PBS, pelleted by centrifugation (1,400×g, 3 min), and resuspended in PBS containing 2 M urea (200 μL). To this was added 1 mM CaCl2 (2 μL of a 200 mM stock in water) and trypsin (2 μg, Promega, sequencing grade) and the digestion was allowed to proceed overnight at 37° C. with shaking. The beads were separated from the digest with Micro Bio-Spin columns (Bio-Rad) by centrifugation (1,000×g, 1 min), washed (2×1 mL PBS and 2×1 mL water) and then transferred to fresh eppendorf tubes with 1 mL water. The washed beads were washed once further in 140 μL TEV buffer (50 mM Tris, pH 8, 0.5 mM EDTA, 1 mM DTT) and then resuspended in 140 μL TEV buffer. 5 μL TEV protease (80 μM) was added and the reactions were rotated overnight at 29° C. The TEV digest was separated from the beads with Micro Bio-Spin columns by centrifugation (1,400×g, 3 min) and the beads were washed once with water (100 μL). The samples were then acidified to a final concentration of 5% (v/v) formic acid and stored at −80° C. prior to analysis.
Samples processed for multidimensional liquid chromatography tandem mass spectrometry (MudPIT) were pressure loaded onto a 250 μm (inner diameter) fused silica capillary columns packed with C18 resin (Aqua 5 μm, Phenomenex). […]

KEAP1-mutant NSCLC cells = test: Colony formation in soft agar, KEAP1-mutant NSCLC cells; type: cell-based, human; settings: 5 μM
Source text: Based on its in situ activity (FIG. 6D and FIG. 12A, 12G) and selectivity (FIGS. 6A, 6B), BPK-29 was chosen for additional biological studies. […] Exogenous expression of […] the growth inhibition caused by BPK-29.

SMILES: C=CC(=O)Nc1cc(Nc2nccc(-c3cn(C)c4ccccc34)n2)c(OC)cc1N(C)CCN(C)C [AZD9291]
changes in cysteine reactivity [1]: neither of which caused substantive changes in cysteine reactivity

inhibition of the NR0B1-SNW1 interaction (NR0B1-SNW1 interaction; tested concentration range of 1-50 μM): did not inhibit
engagement of C274 of NR0B1 (NR0B1): did not engage C274
SMILES: COc1cc(CN(C(=O)CCl)c2cc(C(C)(C)C)ccc2OC)ccc1OCc1ccccc1 [BPK-27, N-(4-(benzyloxy)-3-methoxybenzyl)-N-(5-(tert-butyl)-2-methoxyphenyl)-2-chloroacetamide]
colony formation in soft agar (KEAP1-mutant NSCLC cells): much less of an effect

relative potency for inhibition of FLAG-SNW1 binding to NR0B1 (structure-activity relationship) (NR0B1-SNW1 interaction; compounds at 50 μM): only modest reductions in potency
SMILES: Cc1ccccc1C(=O)N1CCCC(N(Cc2ccccc2)C(=O)CCl)CC1 (stereo not drawn) [BPK-28, N-benzyl-2-chloro-N-(1-(2-methylbenzoyl)azepan-4-yl)acetamide]

SMILES: CN[C@@H]1C[C@H]2O[C@@](C)([C@@H]1OC)n1c3ccccc3c3c4c(c5c6ccccc6n2c5c31)C(=O)NC4 [staurosporine]
changes in cysteine reactivity [1]: neither of which caused substantive changes in cysteine reactivity
